Reference: EP0626016B1, “[…] […]” (BRITISH TECHNOLOGY GROUP LIMITED, priority 1992, dated 1993)
Values joined by “and” are separate entries in the source; they are usually repeats but may differ in a detail not shown here. Equal values may be shown once. Read-outs that look alike come from different tables or passages of the source.

Biological target: T1, HRP Type VIA (Armoracia rusticana, UniProt P00433)
T1 sequence (P00433 31-338): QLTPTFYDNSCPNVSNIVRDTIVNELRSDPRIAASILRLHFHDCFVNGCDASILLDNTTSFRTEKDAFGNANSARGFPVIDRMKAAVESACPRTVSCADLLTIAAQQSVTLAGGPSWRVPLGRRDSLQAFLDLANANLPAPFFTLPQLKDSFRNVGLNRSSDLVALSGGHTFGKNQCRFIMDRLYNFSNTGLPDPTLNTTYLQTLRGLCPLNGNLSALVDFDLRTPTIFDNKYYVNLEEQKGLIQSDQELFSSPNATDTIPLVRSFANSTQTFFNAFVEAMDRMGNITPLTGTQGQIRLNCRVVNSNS

[1] = 0.01 mg/ml, 10µl test compound, control value in brackets not reported
[2] = 0.1 mg/ml, 10µl test compound, control value in brackets not reported
[3] = 1 mg/ml, 10µl test compound, control value in brackets not reported

## Cc1ccc(B(O)O)cc1 [Compound 1034, 4-methylphenylboronic acid]
0.01 mg/ml, 10µl test compound
  (a) Decrease in background (without HRP with test cpd.): Y
  (b) Increase in signal (with HRP, with test cpd.): N
  (c) Increase in signal: background ratio: Y (Column (c) shows whether there was an increase in the signal:background ratio by over 25% of the control value (Y = yes)
[1]
  (d) Signal: Background: ratio (control = with no enhancer): 3.6 (1.9)
0.1 mg/ml, 10µl test compound
  (a) Decrease in background (without HRP with test cpd.): Y
  (b) Increase in signal (with HRP, with test cpd.): Y
  (c) Increase in signal: background ratio: Y (Column (c) shows whether there was an increase in the signal:background ratio by over 25% of the control value (Y = yes)
[2]
  (d) Signal: Background: ratio (control = with no enhancer): 41.2 (2.9)
1 mg/ml, 10µl test compound
  (a) Decrease in background (without HRP with test cpd.): Y
  (b) Increase in signal (with HRP, with test cpd.): N
  (c) Increase in signal: background ratio: N (N = no)

## OB(O)c1ccc(B(O)O)cc1 [Compound 1035, 1,4-phenyldiboronic acid]
0.01 mg/ml, 10µl test compound
  (a) Decrease in background (without HRP with test cpd.): Y
  (b) Increase in signal (with HRP, with test cpd.): N
  (c) Increase in signal: background ratio: N (N = no)
[1]
  (d) Signal: Background: ratio (control = with no enhancer): 2.1 (2.0)
0.1 mg/ml, 10µl test compound
  (a) Decrease in background (without HRP with test cpd.): Y
  (b) Increase in signal (with HRP, with test cpd.): N
  (c) Increase in signal: background ratio: N (N = no)
1 mg/ml, 10µl test compound
  (a) Decrease in background (without HRP with test cpd.): Y
  (b) Increase in signal (with HRP, with test cpd.): N
  (c) Increase in signal: background ratio: N (N = no)

## OB(O)c1ccc(-c2ccc(B(O)O)cc2)cc1 [Compound 1037, 4,4'-bis(phenylboronic acid)]
0.01 mg/ml, 10µl test compound
  (a) Decrease in background (without HRP with test cpd.): Y
  (b) Increase in signal (with HRP, with test cpd.): Y
  (c) Increase in signal: background ratio: Y (Column (c) shows whether there was an increase in the signal:background ratio by over 25% of the control value (Y = yes)
[1]
  (d) Signal: Background: ratio (control = with no enhancer): 35.5 (1.9)
0.1 mg/ml, 10µl test compound
  (a) Decrease in background (without HRP with test cpd.): Y
  (b) Increase in signal (with HRP, with test cpd.): Y
  (c) Increase in signal: background ratio: Y (Column (c) shows whether there was an increase in the signal:background ratio by over 25% of the control value (Y = yes)
[2]
  (d) Signal: Background: ratio (control = with no enhancer): 503.3 (2.9)
1 mg/ml, 10µl test compound
  (a) Decrease in background (without HRP with test cpd.): Y
  (b) Increase in signal (with HRP, with test cpd.): N
  (c) Increase in signal: background ratio: N (N = no)

## CCCCOB(OCCCC)c1ccc(-c2ccc(Br)cc2)cc1 [Compound 1038, 4-(4'-bromophenyl)phenyl-di-n-butoxyborane]
0.01 mg/ml, 10µl test compound
  (a) Decrease in background (without HRP with test cpd.): Y Y
  (b) Increase in signal (with HRP, with test cpd.): Y Y
  (c) Increase in signal: background ratio: Y Y (Column (c) shows whether there was an increase in the signal:background ratio by over 25% of the control value (Y = yes)
[1]
  (d) Signal: Background: ratio (control = with no enhancer): 442.2
0.1 mg/ml, 10µl test compound
  (a) Decrease in background (without HRP with test cpd.): Y Y
  (b) Increase in signal (with HRP, with test cpd.): Y Y
  (c) Increase in signal: background ratio: Y Y (Column (c) shows whether there was an increase in the signal:background ratio by over 25% of the control value (Y = yes)
[2]
  (d) Signal: Background: ratio (control = with no enhancer): 2118.5
1 mg/ml, 10µl test compound
  (a) Decrease in background (without HRP with test cpd.): Y
  (b) Increase in signal (with HRP, with test cpd.): Y
  (c) Increase in signal: background ratio: Y (Column (c) shows whether there was an increase in the signal:background ratio by over 25% of the control value (Y = yes)
[3]
  (d) Signal: Background: ratio (control = with no enhancer): 903.8 (4.5)

## Clc1cc(Cl)c(OB(Oc2cc(Cl)c(Cl)cc2Cl)c2cc(Cl)c(Cl)cc2Cl)cc1Cl [Compound 1039, di-(3',4',6'-trichlorophenoxy)-3,4,6-trichlorophenylborane]
  (a) Decrease in background (without HRP with test cpd.): Y
  (b) Increase in signal (with HRP, with test cpd.): N
  (c) Increase in signal: background ratio: N (key: column (a) shows whether the test compound lowered the light output from the luminol-hydrogen peroxide solution (Y = yes; N = no)
  (d) Signal: Background: ratio (control = with no enhancer): 3.4 (2.9)

## Clc1cc(Cl)cc(OB(Oc2cc(Cl)cc(Cl)c2)c2cc(Cl)cc(Cl)c2)c1 [Compound 1040, di-(3',5'-dichlorophenoxy)-3,5-dichlorophenylborane]
  (a) Decrease in background (without HRP with test cpd.): Y
  (b) Increase in signal (with HRP, with test cpd.): N
  (d) Signal: Background: ratio (control = with no enhancer): 4.7 (4.5) and 3.9 (2.9)

## Clc1ccc(OB(Oc2ccc(Cl)cc2)c2ccc(Cl)cc2)cc1 [Compound 1041, 4-chlorophenyl-di-(4'-chlorophenoxy)borane]
0.01 mg/ml, 10µl test compound
  (a) Decrease in background (without HRP with test cpd.): Y
  (b) Increase in signal (with HRP, with test cpd.): Y
  (c) Increase in signal: background ratio: Y (Column (c) shows whether there was an increase in the signal:background ratio by over 25% of the control value (Y = yes)
[1]
  (d) Signal: Background: ratio (control = with no enhancer): 6.3 (1.9)
0.1 mg/ml, 10µl test compound
  (a) Decrease in background (without HRP with test cpd.): Y
  (b) Increase in signal (with HRP, with test cpd.): Y
  (c) Increase in signal: background ratio: Y (Column (c) shows whether there was an increase in the signal:background ratio by over 25% of the control value (Y = yes)
[2]
  (d) Signal: Background: ratio (control = with no enhancer): 360.2 (2.8)
1 mg/ml, 10µl test compound
  (a) Decrease in background (without HRP with test cpd.): Y
  (b) Increase in signal (with HRP, with test cpd.): Y
  (c) Increase in signal: background ratio: Y (Column (c) shows whether there was an increase in the signal:background ratio by over 25% of the control value (Y = yes)
[3]
  (d) Signal: Background: ratio (control = with no enhancer): 2606.2(4.5)

## CCCCOB(OCCCC)c1ccc(Br)cc1 [Compound 1044, 4-bromophenyl-di-n-butoxyborane]
0.01 mg/ml, 10µl test compound
  (a) Decrease in background (without HRP with test cpd.): Y
  (b) Increase in signal (with HRP, with test cpd.): Y
  (c) Increase in signal: background ratio: Y (Column (c) shows whether there was an increase in the signal:background ratio by over 25% of the control value (Y = yes)
[1]
  (d) Signal: Background: ratio (control = with no enhancer): 38.5 (1.9)
0.1 mg/ml, 10µl test compound
  (a) Decrease in background (without HRP with test cpd.): Y
  (b) Increase in signal (with HRP, with test cpd.): Y
  (c) Increase in signal: background ratio: Y (Column (c) shows whether there was an increase in the signal:background ratio by over 25% of the control value (Y = yes)
[2]
  (d) Signal: Background: ratio (control = with no enhancer): 623.1 (2.7)
1 mg/ml, 10µl test compound
  (a) Decrease in background (without HRP with test cpd.): Y
  (b) Increase in signal (with HRP, with test cpd.): N
  (c) Increase in signal: background ratio: Y (Column (c) shows whether there was an increase in the signal:background ratio by over 25% of the control value (Y = yes)
[3]
  (d) Signal: Background: ratio (control = with no enhancer): 147.1 (4.5)

## O=C(O)c1ccc(B(O)O)cc1[N+](=O)[O-] [Compound 1045, 4-carboxy-3-nitrophenylboronic acid]
0.01 mg/ml, 10µl test compound
  (a) Decrease in background (without HRP with test cpd.): Y
  (b) Increase in signal (with HRP, with test cpd.): N
  (c) Increase in signal: background ratio: N (N = no)
[1]
  (d) Signal: Background: ratio (control = with no enhancer): 2.2 (2.0)
0.1 mg/ml, 10µl test compound
  (a) Decrease in background (without HRP with test cpd.): Y
  (b) Increase in signal (with HRP, with test cpd.): Y
  (c) Increase in signal: background ratio: Y (Column (c) shows whether there was an increase in the signal:background ratio by over 25% of the control value (Y = yes)
[2]
  (d) Signal: Background: ratio (control = with no enhancer): 18.1 (2.8)
1 mg/ml, 10µl test compound
  (a) Decrease in background (without HRP with test cpd.): Y
  (b) Increase in signal (with HRP, with test cpd.): N
  (c) Increase in signal: background ratio: Y (Column (c) shows whether there was an increase in the signal:background ratio by over 25% of the control value (Y = yes)
[3]
  (d) Signal: Background: ratio (control = with no enhancer): 68.5 (4.5)

## c1ccc2c(OB(Oc3cccc4ccccc34)c3cccc4ccccc34)cccc2c1 [Compound 1047, di-(1-naphthoxy)-l-naphthylborane]
0.01 mg/ml, 10µl test compound
  (a) Decrease in background (without HRP with test cpd.): Y
  (b) Increase in signal (with HRP, with test cpd.): N
  (c) Increase in signal: background ratio: N (N = no)
0.1 mg/ml, 10µl test compound
  (a) Decrease in background (without HRP with test cpd.): Y
  (b) Increase in signal (with HRP, with test cpd.): N
  (c) Increase in signal: background ratio: N (N = no)
1 mg/ml, 10µl test compound
  (a) Decrease in background (without HRP with test cpd.): Y
  (b) Increase in signal (with HRP, with test cpd.): N
  (c) Increase in signal: background ratio: N (N = no)

## BrCc1ccccc1OB(Oc1ccccc1CBr)c1ccccc1CBr [Compound 1049, 2-boromethylphenyl-di-(2'-boromethylphenoxy)borane]
0.01 mg/ml, 10µl test compound
  (a) Decrease in background (without HRP with test cpd.): Y
  (b) Increase in signal (with HRP, with test cpd.): N
  (c) Increase in signal: background ratio: N (N = no)
0.1 mg/ml, 10µl test compound
  (a) Decrease in background (without HRP with test cpd.): Y
  (b) Increase in signal (with HRP, with test cpd.): N
  (c) Increase in signal: background ratio: N (N = no)
[2]
  (d) Signal: Background: ratio (control = with no enhancer): 3.2 (2.9)
1 mg/ml, 10µl test compound
  (a) Decrease in background (without HRP with test cpd.): Y
  (b) Increase in signal (with HRP, with test cpd.): N
  (c) Increase in signal: background ratio: N (N = no)
